Data: ChEMBL document CHEMBL4507259 (2021)

Experiments:
[1] = target: Glycogen synthase kinase-3 beta (Homo sapiens) (UniProt P49841); settings: Compound concentration 1000.0 nM
[2] = target: GABA-A receptor; anion channel (Rattus norvegicus) (UniProt O09028+P15431+P18506+P18508+P19969+P20236+P23574+P23576+P28471+P28473+P30191+P62813+P63079+P63138+Q91ZM7+Q9ES14); settings: Compound concentration 10.0 uM
[3] = target: Kappa-type opioid receptor (Homo sapiens) (UniProt P41145); assay: kappa (KOP) CEREP ligand profiling; settings: filed as agonist; Compound concentration 10.0 uM
Chain of Kappa-type opioid receptor (Homo sapiens) (P41145 whole entry): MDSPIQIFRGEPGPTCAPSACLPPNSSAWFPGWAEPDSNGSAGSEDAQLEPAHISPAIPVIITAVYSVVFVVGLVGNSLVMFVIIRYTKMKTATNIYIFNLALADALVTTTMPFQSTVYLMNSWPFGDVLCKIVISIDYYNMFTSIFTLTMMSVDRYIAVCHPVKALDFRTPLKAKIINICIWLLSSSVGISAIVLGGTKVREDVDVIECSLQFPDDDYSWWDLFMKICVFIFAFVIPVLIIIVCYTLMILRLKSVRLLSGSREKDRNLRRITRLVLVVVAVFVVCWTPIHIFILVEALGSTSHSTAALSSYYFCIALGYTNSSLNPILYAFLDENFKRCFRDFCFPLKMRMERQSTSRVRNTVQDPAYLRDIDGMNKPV

[4] = target: T1, Alpha-2B adrenergic receptor (Homo sapiens) (UniProt P18089); assay: alpha 2B (h) CEREP ligand profiling; settings: filed as antagonist, Compound concentration 10.0 uM
T1 sequence (whole entry): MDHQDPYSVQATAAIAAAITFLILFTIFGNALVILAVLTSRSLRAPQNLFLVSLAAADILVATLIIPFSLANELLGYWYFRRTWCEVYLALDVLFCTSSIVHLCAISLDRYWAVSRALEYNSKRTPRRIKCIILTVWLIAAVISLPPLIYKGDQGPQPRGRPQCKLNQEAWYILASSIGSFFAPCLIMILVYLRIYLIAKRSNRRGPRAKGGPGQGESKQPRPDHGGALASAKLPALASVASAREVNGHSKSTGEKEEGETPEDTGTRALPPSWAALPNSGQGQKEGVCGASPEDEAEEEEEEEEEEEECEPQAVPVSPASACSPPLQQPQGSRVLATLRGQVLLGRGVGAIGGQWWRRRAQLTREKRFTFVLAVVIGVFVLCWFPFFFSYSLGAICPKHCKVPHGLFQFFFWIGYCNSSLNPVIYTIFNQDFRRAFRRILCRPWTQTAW

[5] = target: Mitogen-activated protein kinase 13 (Homo sapiens) (UniProt O15264); settings: Compound concentration 1000.0 nM
[6] = target: Tyrosine-protein kinase JAK2 (Homo sapiens) (UniProt O60674); settings: Compound concentration 1000.0 nM
[7] = target: Glutamate [NMDA] receptor (Homo sapiens) (UniProt Q05586+Q12879+Q13224+O15399+O60391+Q14957+Q8TCU5); assay: NMDA CEREP ligand profiling; type: protein-complex assay
[8] = target: Serine/threonine-protein kinase Nek7 (Homo sapiens) (UniProt Q8TDX7); settings: Compound concentration 1000.0 nM
Chain of Serine/threonine-protein kinase Nek7 (Homo sapiens) (Q8TDX7 whole entry, looked up): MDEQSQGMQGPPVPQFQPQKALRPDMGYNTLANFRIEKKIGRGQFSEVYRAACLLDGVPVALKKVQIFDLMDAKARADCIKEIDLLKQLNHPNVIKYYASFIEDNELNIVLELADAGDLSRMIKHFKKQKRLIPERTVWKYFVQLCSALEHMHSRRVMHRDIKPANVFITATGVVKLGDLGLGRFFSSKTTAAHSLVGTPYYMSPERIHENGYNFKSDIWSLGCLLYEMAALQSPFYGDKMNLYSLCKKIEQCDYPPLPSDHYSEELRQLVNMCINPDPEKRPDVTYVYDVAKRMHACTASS

[9] = target: Eukaryotic translation initiation factor 2-alpha kinase 1 (Homo sapiens) (UniProt Q9BQI3); settings: Compound concentration 1000.0 nM
[10] = target: T2, 5-hydroxytryptamine receptor 2C (Homo sapiens) (UniProt P28335); assay: 5-HT2C (h) CEREP ligand profiling; settings: filed as antagonist, Compound concentration 10.0 uM
T2 sequence (whole entry): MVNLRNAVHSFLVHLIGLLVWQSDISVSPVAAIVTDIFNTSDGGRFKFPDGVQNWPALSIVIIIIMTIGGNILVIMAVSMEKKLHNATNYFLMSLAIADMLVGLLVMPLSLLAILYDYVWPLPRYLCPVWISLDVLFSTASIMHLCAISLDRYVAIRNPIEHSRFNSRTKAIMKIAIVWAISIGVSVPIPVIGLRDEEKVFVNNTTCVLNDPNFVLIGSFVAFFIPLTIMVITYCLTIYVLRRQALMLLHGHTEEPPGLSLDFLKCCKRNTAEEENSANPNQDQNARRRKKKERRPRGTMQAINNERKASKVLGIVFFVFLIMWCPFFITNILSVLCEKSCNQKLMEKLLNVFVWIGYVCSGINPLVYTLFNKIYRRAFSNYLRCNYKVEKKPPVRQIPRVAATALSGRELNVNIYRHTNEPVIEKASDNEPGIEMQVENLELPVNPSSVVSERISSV

[11] = system: Receptor-type tyrosine-protein kinase FLT3 (Homo sapiens), P36888 [N841I]; settings: Compound concentration 1000.0 nM
[12] = target: STE20-like serine/threonine-protein kinase (Homo sapiens) (UniProt Q9H2G2); settings: Compound concentration 1000.0 nM
[13] = target: D(2) dopamine receptor (Homo sapiens) (UniProt P14416); settings: Compound concentration 10.0 uM
Chain of D(2) dopamine receptor (Homo sapiens) (P14416 whole entry): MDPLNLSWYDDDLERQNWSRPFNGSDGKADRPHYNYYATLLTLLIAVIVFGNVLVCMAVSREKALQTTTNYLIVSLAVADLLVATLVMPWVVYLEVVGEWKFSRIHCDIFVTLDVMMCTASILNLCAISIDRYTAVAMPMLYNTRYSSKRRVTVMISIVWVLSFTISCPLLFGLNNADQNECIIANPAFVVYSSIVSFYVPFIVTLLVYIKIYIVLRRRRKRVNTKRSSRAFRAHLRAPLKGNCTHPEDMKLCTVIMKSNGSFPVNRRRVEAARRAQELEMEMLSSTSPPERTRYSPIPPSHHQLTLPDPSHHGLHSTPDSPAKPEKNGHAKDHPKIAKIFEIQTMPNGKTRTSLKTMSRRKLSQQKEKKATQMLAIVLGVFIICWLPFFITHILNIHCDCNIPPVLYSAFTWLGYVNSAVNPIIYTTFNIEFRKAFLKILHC

[14] = target: Serine/threonine-protein kinase Nek9 (Homo sapiens) (UniProt Q8TD19); settings: Compound concentration 1000.0 nM
Chain of Serine/threonine-protein kinase Nek9 (Homo sapiens) (Q8TD19 whole entry): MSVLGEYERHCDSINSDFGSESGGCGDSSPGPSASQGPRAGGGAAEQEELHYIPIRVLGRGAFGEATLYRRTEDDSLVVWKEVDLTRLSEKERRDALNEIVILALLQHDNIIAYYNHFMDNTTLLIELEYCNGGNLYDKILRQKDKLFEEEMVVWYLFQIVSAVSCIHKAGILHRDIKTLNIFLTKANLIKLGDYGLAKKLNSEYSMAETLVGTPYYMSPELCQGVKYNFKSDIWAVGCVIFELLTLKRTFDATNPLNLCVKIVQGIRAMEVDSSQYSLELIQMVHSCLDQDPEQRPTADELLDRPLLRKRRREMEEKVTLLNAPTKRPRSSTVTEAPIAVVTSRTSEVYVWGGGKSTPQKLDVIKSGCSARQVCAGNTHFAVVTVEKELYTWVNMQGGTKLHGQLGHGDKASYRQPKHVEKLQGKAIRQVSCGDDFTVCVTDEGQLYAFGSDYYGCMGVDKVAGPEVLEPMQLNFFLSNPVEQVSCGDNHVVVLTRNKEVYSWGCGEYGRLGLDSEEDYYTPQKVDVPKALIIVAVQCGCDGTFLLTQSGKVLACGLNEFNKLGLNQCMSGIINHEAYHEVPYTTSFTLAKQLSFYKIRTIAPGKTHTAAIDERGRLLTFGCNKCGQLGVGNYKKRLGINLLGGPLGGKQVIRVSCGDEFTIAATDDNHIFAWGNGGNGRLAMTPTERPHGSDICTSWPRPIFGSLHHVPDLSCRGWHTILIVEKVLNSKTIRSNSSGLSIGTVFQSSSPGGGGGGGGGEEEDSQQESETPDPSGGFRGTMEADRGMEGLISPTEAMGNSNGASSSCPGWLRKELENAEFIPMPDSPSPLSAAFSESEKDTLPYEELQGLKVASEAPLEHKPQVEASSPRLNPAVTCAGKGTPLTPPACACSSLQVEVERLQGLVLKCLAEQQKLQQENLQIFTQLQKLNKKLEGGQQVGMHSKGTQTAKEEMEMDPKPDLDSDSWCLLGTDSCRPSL

[15] = target: Myosin light chain kinase (Homo sapiens) (UniProt Q32MK0); settings: Compound concentration 1000.0 nM
[16] = target: Mitogen-activated protein kinase kinase kinase kinase 5 (Homo sapiens) (UniProt Q9Y4K4); settings: Compound concentration 1000.0 nM
[17] = target: Inhibitor of nuclear factor kappa-B kinase subunit alpha (Homo sapiens) (UniProt O15111); settings: Compound concentration 1000.0 nM
[18] = target: Tyrosine-protein kinase Fgr (Homo sapiens) (UniProt P09769); settings: Compound concentration 1000.0 nM
[19] = target: LIM domain kinase 1 (Homo sapiens) (UniProt P53667); settings: Compound concentration 1000.0 nM
[20] = target: NUAK family SNF1-like kinase 1 (Homo sapiens) (UniProt O60285); settings: Compound concentration 1000.0 nM
[21] = target: Inhibitor of nuclear factor kappa-B kinase subunit beta (Homo sapiens) (UniProt O14920); settings: Compound concentration 1000.0 nM
[22] = system: Mast/stem cell growth factor receptor Kit (Homo sapiens), P10721 [V559D,V654A]; settings: Compound concentration 1000.0 nM
[23] = target: Serine/threonine-protein kinase 10 (Homo sapiens) (UniProt O94804); settings: Compound concentration 1000.0 nM
[24] = system: Serine/threonine-protein kinase B-raf (Homo sapiens), P15056 [V600E]; settings: Compound concentration 1000.0 nM
Chain of Serine/threonine-protein kinase B-raf (Homo sapiens), P15056 [V600E] (P15056 whole entry V600E): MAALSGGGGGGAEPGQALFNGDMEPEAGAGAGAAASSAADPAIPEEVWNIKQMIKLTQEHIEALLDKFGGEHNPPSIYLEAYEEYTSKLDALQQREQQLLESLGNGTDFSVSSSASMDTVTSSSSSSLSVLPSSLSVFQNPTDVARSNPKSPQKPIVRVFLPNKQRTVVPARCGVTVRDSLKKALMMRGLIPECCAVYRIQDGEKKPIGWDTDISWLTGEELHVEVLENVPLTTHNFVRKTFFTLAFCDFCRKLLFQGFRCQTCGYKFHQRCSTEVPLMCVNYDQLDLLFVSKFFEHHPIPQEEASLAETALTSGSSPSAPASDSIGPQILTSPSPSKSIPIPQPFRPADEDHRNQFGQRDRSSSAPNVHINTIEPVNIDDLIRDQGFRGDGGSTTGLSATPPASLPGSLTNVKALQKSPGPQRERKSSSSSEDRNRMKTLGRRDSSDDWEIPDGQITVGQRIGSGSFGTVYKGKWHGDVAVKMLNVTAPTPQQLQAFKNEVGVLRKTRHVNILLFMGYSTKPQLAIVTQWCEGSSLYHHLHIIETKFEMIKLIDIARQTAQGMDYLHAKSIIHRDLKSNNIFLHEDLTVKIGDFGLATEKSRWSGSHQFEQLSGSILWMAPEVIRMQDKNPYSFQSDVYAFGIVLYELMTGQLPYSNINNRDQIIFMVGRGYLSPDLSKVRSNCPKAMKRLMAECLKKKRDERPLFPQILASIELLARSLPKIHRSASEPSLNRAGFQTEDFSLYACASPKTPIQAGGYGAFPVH

[25] = target: Serine/threonine-protein kinase NLK (Homo sapiens) (UniProt Q9UBE8); settings: Compound concentration 1000.0 nM
[26] = target: Dual specificity tyrosine-phosphorylation-regulated kinase 1A (Homo sapiens) (UniProt Q13627); settings: Compound concentration 1000.0 nM
[27] = target: Phosphatidylinositol 3-kinase C2 domain-containing subunit gamma (Homo sapiens) (UniProt O75747); settings: Compound concentration 1000.0 nM
[28] = target: Mitotic checkpoint serine/threonine-protein kinase BUB1 (Homo sapiens) (UniProt O43683); settings: Compound concentration 1000.0 nM
Chain of Mitotic checkpoint serine/threonine-protein kinase BUB1 (Homo sapiens) (O43683 whole entry, looked up): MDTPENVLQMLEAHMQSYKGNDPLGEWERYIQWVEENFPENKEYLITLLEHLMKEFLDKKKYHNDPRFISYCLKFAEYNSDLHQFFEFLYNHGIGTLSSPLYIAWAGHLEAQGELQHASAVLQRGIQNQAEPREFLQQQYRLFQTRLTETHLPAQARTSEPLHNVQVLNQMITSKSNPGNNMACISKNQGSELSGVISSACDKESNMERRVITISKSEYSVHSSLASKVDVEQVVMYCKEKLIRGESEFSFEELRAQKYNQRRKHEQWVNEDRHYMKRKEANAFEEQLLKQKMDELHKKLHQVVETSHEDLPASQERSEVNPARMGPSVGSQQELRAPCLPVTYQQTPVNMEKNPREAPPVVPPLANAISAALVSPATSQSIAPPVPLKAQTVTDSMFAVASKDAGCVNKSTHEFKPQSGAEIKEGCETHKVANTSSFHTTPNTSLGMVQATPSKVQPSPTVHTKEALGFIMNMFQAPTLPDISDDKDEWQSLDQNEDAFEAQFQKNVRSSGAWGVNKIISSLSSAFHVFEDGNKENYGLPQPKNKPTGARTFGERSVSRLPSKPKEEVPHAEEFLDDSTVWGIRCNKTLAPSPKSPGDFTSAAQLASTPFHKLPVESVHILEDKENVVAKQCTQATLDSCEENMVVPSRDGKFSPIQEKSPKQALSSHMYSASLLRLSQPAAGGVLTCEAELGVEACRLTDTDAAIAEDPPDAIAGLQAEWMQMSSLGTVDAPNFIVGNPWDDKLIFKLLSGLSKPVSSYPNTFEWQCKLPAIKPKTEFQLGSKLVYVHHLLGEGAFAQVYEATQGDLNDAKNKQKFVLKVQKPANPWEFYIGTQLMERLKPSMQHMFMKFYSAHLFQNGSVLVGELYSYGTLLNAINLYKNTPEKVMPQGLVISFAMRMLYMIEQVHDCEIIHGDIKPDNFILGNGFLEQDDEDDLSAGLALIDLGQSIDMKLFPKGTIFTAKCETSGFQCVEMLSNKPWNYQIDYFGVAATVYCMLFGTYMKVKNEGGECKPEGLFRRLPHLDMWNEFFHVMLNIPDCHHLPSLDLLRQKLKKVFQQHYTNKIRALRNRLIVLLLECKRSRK

[29] = target: Calcium/calmodulin-dependent protein kinase kinase 2 (Homo sapiens) (UniProt Q96RR4); settings: Compound concentration 1000.0 nM
Chain of Calcium/calmodulin-dependent protein kinase kinase 2 (Homo sapiens) (Q96RR4 2-588 limits assumed): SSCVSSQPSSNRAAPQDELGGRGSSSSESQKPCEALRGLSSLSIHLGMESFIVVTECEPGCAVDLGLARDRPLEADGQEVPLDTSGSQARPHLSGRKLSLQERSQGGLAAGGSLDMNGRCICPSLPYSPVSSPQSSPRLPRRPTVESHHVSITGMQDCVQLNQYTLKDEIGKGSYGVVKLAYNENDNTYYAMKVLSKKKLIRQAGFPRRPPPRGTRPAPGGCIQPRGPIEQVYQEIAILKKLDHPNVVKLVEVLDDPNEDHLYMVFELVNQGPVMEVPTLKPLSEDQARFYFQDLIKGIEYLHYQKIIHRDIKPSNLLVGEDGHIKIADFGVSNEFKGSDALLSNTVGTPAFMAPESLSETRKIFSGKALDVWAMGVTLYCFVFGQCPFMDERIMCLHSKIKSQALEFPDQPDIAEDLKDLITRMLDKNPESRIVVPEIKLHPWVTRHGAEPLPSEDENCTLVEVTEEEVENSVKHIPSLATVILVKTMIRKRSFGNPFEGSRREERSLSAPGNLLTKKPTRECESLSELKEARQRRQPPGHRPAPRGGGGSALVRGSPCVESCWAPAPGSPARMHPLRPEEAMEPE

[30] = target: Serine/threonine-protein kinase WNK4 (Homo sapiens) (UniProt Q96J92); settings: Compound concentration 1000.0 nM

Chain of Glycogen synthase kinase-3 beta (Homo sapiens) (P49841 whole entry, looked up): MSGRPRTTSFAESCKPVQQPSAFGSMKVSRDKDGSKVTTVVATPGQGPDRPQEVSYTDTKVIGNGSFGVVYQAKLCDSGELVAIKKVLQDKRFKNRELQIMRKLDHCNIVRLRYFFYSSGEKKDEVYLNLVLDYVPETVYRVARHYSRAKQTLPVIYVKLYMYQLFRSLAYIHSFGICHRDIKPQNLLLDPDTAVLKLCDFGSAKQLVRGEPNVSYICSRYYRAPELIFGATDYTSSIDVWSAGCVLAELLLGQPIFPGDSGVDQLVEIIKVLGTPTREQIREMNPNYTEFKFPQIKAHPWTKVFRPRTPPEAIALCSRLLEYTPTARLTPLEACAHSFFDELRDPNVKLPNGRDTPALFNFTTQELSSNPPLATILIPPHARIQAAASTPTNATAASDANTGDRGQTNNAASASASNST

CNC(=O)Nc1ccc2c(c1)CC[C@@]21OC(=O)N(CC(=O)N(Cc2ccc(F)cc2)[C@@H](C)C(F)(F)F)C1=O [A-485]
inactive: residual activity [1] 82% | inhibition [2] 19.7% | inhibition [3] 28% | inhibition [4] -4% | residual activity [5] 83% | residual activity [6] 83% | inhibition ([7]; filed as antagonist; Compound concentration 10.0 uM) 4% | residual activity [8] 91% | residual activity [9] 80% | inhibition [10] -2% | residual activity [11] 100% | residual activity [12] 82% | inhibition [13] 15.5% | residual activity [14] 78% | residual activity [15] 90% | residual activity [16] 88% | residual activity [17] 92% | residual activity [18] 75% | residual activity [19] 91% | residual activity [20] 94% | residual activity [21] 83% | residual activity [22] 90% | residual activity [23] 100% | residual activity [24] 100% | residual activity [25] 82% | residual activity [26] 64% | residual activity [27] 75% | residual activity [28] 66% | residual activity [29] 76% | residual activity [30] 73%

CNC(=O)Nc1ccc2c(c1)[C@@]1(CC2)OC(=O)N(CC(=O)N(Cc2ccc(F)cc2)[C@@H](C)C(F)(F)F)C1=O [A-486]
inactive: residual activity [1] 95% | inhibition [2] 15.6% | inhibition [3] 12% | inhibition [4] 4% | residual activity [5] 97% | residual activity [6] 100% | inhibition ([7]; filed as antagonist, Compound concentration 10.0 uM) 2% | residual activity [8] 100% | residual activity [9] 96% | inhibition [10] -7% | residual activity [11] 100% | residual activity [12] 83% | inhibition [13] -8.75% | residual activity [14] 95% | residual activity [15] 85% | residual activity [16] 100% | residual activity [17] 100% | residual activity [18] 88% | residual activity [19] 87% | residual activity [20] 88% | residual activity [21] 92% | residual activity [22] 83% | residual activity [23] 92% | residual activity [24] 96% | residual activity [25] 77% | residual activity [26] 77% | residual activity [27] 97% | residual activity [28] 77% | residual activity [29] 99% | residual activity [30] 100%
